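Values below derive from 48-hour exposures of cells grown in 96-well plates, with endpoints linearly interpolated between the two concentrations bracketing the appropriate inhibition level. Abbreviation: GI50, concentration required for 50% inhibition of growth.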 The source made the active and inactive calls. No stated cut-off is given here; in the data, active = GI50 up to about 1.1 µM and inactive = higher. Non-standard residues stand in square brackets, D forms with d. Residues, ends and D or L forms follow the SMILES beside them. ξ: configuration not given here. *: point of attachment. ξHyp = O=C(O)C1CC(O)CN1; Cbz = O=C(OCc1ccccc1)*
Legend:
Assay in all cases: NCI tumour cell line growth inhibition, 48 h
MDA-N = test system: MDA-N
EKVX = test system: EKVX
M14 = test system: M14
MOLT-4 = test system: MOLT-4
UO-31 = test system: UO-31
HT-29 = test system: HT-29
SK-OV-3 = test system: SK-OV-3
SK-MEL-2 = test system: SK-MEL-2
DU-145 = test system: DU-145
OVCAR-8 = test system: OVCAR-8
OVCAR-5 = test system: OVCAR-5
SNB-19 = test system: SNB-19
SR = test system: SR
OVCAR-4 = test system: OVCAR-4
BT-549 = test system: BT-549
MCF7 = test system: MCF7
CCRF-CEM = test system: CCRF-CEM
HCC 2998 = test system: HCC 2998
CAKI-1 = test system: CAKI-1
SF-539 = test system: SF-539

Measured: GI50

NC(=O)CNC(=O)C1CC(O)CN1C(=O)OCc1ccccc1 (configuration not stated) (Cbz-[ξHyp]-Gly-NH2)
inactive: MDA-N > 100 µM | EKVX 41.4 µM | M14 > 100 µM | MOLT-4 > 100 µM | UO-31 > 100 µM | HT-29 > 100 µM | SK-OV-3 > 100 µM | SK-MEL-2 > 100 µM | DU-145 > 100 µM | OVCAR-8 > 100 µM | OVCAR-5 > 100 µM | SNB-19 > 100 µM | SR > 100 µM | OVCAR-4 > 100 µM | BT-549 > 100 µM | MCF7 > 100 µM | CCRF-CEM > 100 µM | HCC 2998 > 100 µM

O=C(O)C1CCc2ccc3ccccc3c2C1c1cccc2ccccc12 (configuration not stated)
inactive: MDA-N 22.1 µM | EKVX 30.5 µM | M14 17.6 µM | MOLT-4 19.8 µM | UO-31 25.8 µM | HT-29 17.4 µM | SK-OV-3 36.1 µM | SK-MEL-2 18.2 µM | DU-145 25.8 µM | OVCAR-8 24.2 µM | OVCAR-5 18.4 µM | SNB-19 19.3 µM | SR 20.8 µM | OVCAR-4 29 µM | BT-549 19.1 µM | MCF7 34.7 µM | CAKI-1 68.2 µM | SF-539 23.8 µM | CCRF-CEM 19.1 µM

COc1cc(S(=O)(=O)Nc2ccc(-c3csc(N)n3)cc2)ccc1Cl
inactive: MDA-N 19.4 µM | EKVX 16.6 µM | M14 18.6 µM | MOLT-4 11.1 µM | UO-31 19.8 µM | HT-29 20.7 µM | SK-MEL-2 18.8 µM | DU-145 18 µM | OVCAR-8 22.3 µM | OVCAR-5 23.3 µM | SNB-19 19.5 µM | SR 21.9 µM | OVCAR-4 14.1 µM | BT-549 22.3 µM | MCF7 15.2 µM | CAKI-1 20.2 µM | SF-539 47.6 µM | CCRF-CEM 15.5 µM

Cn1nc2ccc([N+](=O)[O-])c(Cn3nnc4ccccc43)c2n1
inactive: MDA-N 88.3 µM | EKVX 87.9 µM | M14 > 100 µM | MOLT-4 > 100 µM | UO-31 > 100 µM | HT-29 > 100 µM | SK-OV-3 > 100 µM | SK-MEL-2 > 100 µM | DU-145 > 100 µM | OVCAR-8 > 100 µM | OVCAR-5 > 100 µM | SNB-19 > 100 µM | OVCAR-4 > 100 µM | BT-549 > 100 µM | MCF7 > 100 µM | CAKI-1 > 100 µM | SF-539 > 100 µM | CCRF-CEM > 100 µM | HCC 2998 > 100 µM

CC1CCCc2c(C#N)c(N)nc(-c3ccc(Cl)cc3)c21 (configuration not stated)
inactive: MDA-N 31 µM | EKVX 14.7 µM | M14 19.2 µM | MOLT-4 7.69 µM | UO-31 13.8 µM | HT-29 6.75 µM | SK-OV-3 38.1 µM | SK-MEL-2 15.6 µM | DU-145 33.7 µM | OVCAR-8 31 µM | OVCAR-5 15.6 µM | SNB-19 39.4 µM | SR 42.2 µM | BT-549 17.9 µM | MCF7 19.6 µM | CAKI-1 68.7 µM | SF-539 14.5 µM | CCRF-CEM 22.8 µM

CCn1c(=O)c2c(=O)[nH][nH]c2c2ccccc21
inactive: MDA-N > 100 µM | EKVX > 100 µM | MOLT-4 > 100 µM | UO-31 > 100 µM | HT-29 > 100 µM | DU-145 > 100 µM | OVCAR-8 > 100 µM | OVCAR-5 > 100 µM | SNB-19 > 100 µM | SR > 100 µM | OVCAR-4 > 100 µM | BT-549 > 100 µM | MCF7 > 100 µM | SF-539 > 100 µM | CCRF-CEM > 100 µM | HCC 2998 > 100 µM

CC(=O)CC(=O)N1CCSC1=S
inactive: MDA-N > 10 µM | EKVX > 10 µM | M14 > 10 µM | MOLT-4 > 10 µM | UO-31 > 10 µM | HT-29 > 10 µM | SK-OV-3 > 10 µM | SK-MEL-2 > 10 µM | DU-145 > 10 µM | OVCAR-8 > 10 µM | OVCAR-5 > 10 µM | SNB-19 > 10 µM | SR > 10 µM | BT-549 > 10 µM | MCF7 > 10 µM | SF-539 > 10 µM | CCRF-CEM > 10 µM | HCC 2998 > 10 µM

COc1ccc(NC(=S)Nc2cc(C)cc(C)n2)cc1
inactive: MDA-N > 100 µM | EKVX > 100 µM | M14 > 100 µM | MOLT-4 > 100 µM | UO-31 > 100 µM | HT-29 > 100 µM | SK-OV-3 > 100 µM | SK-MEL-2 > 100 µM | DU-145 > 100 µM | OVCAR-8 > 100 µM | OVCAR-5 > 100 µM | SNB-19 > 100 µM | SR > 100 µM | OVCAR-4 > 100 µM | BT-549 > 100 µM | MCF7 > 100 µM | CAKI-1 > 100 µM | SF-539 > 100 µM | CCRF-CEM > 100 µM

CCn1c(-c2ccccc2)cs/c1=N\C(P(=O)(O)O)P(=O)(O)O
inactive: MDA-N > 100 µM | EKVX > 100 µM | M14 > 100 µM | MOLT-4 > 100 µM | UO-31 > 100 µM | HT-29 > 100 µM | SK-OV-3 > 100 µM | DU-145 > 100 µM | OVCAR-8 > 100 µM | OVCAR-5 > 100 µM | SNB-19 > 100 µM | SR > 100 µM | BT-549 > 100 µM | MCF7 > 100 µM | CAKI-1 > 100 µM | SF-539 > 100 µM | CCRF-CEM 2.05 µM | HCC 2998 > 100 µM

CN1c2ccccc2S(=O)(=O)n2c(COc3ccc(Cl)cc3)nnc21
inactive: MDA-N > 100 µM | EKVX > 100 µM | M14 > 100 µM | MOLT-4 > 100 µM | UO-31 > 100 µM | HT-29 > 100 µM | SK-OV-3 77.1 µM | SK-MEL-2 > 100 µM | DU-145 > 100 µM | OVCAR-8 > 100 µM | OVCAR-5 > 100 µM | SNB-19 57.4 µM | OVCAR-4 59.3 µM | BT-549 50.6 µM | MCF7 > 100 µM | CAKI-1 85.7 µM | SF-539 35.5 µM | CCRF-CEM 75.7 µM | HCC 2998 > 100 µM

O=C1/C(=C/c2ccc(O)c([N+](=O)[O-])c2)CCC/C1=C\c1ccc(O)c([N+](=O)[O-])c1
inactive: MDA-N 7.57 µM | EKVX 22.6 µM | M14 10.8 µM | MOLT-4 13.9 µM | UO-31 15.2 µM | HT-29 12.3 µM | SK-OV-3 26 µM | SK-MEL-2 11.4 µM | DU-145 9.77 µM | OVCAR-8 18.5 µM | OVCAR-5 15.4 µM | SNB-19 11.7 µM | OVCAR-4 18.9 µM | BT-549 13.3 µM | MCF7 12.3 µM | CAKI-1 11.5 µM | SF-539 19.3 µM | CCRF-CEM 30 µM | HCC 2998 8.69 µM

CCNC1=C(NC(=O)c2ccc(F)cc2)C(=O)c2ccccc2C1=O
inactive: MDA-N 33.6 µM | EKVX > 100 µM | M14 24.5 µM | MOLT-4 30.1 µM | HT-29 22.2 µM | SK-OV-3 18.5 µM | DU-145 > 100 µM | OVCAR-8 32.7 µM | OVCAR-5 > 100 µM | SNB-19 > 100 µM | SR 48.4 µM | OVCAR-4 40.1 µM | BT-549 > 100 µM | MCF7 30.3 µM | SF-539 72.1 µM | CCRF-CEM 35.8 µM | HCC 2998 34.8 µM

CN(C)/C=N/[C@@H](C(=O)O)c1ccccc1
inactive: MDA-N > 100 µM | EKVX > 100 µM | M14 > 100 µM | MOLT-4 > 100 µM | UO-31 > 100 µM | HT-29 > 100 µM | SK-OV-3 > 100 µM | DU-145 > 100 µM | OVCAR-8 > 100 µM | OVCAR-5 > 100 µM | SNB-19 > 100 µM | SR > 100 µM | OVCAR-4 > 100 µM | BT-549 > 100 µM | MCF7 > 100 µM | CCRF-CEM > 100 µM | HCC 2998 > 100 µM

C/C(CC(O)(C(F)(F)Cl)C(F)(F)Cl)=N\Nc1ccccc1
inactive: MDA-N 43.6 µM | EKVX 23.1 µM | M14 29.4 µM | MOLT-4 23.4 µM | UO-31 31.2 µM | HT-29 42.9 µM | SK-OV-3 29.4 µM | SK-MEL-2 21.5 µM | DU-145 49 µM | OVCAR-8 36.7 µM | OVCAR-5 > 100 µM | SNB-19 36.9 µM | SR 39.1 µM | OVCAR-4 63.7 µM | BT-549 33.6 µM | MCF7 23.2 µM | CAKI-1 22.2 µM | SF-539 32.3 µM | CCRF-CEM 29 µM

CCOC(=O)C(NC(=O)NC(C(=O)OCC)C(=O)OCC)C(=O)OCC
inactive: MDA-N > 100 µM | EKVX > 100 µM | M14 > 100 µM | MOLT-4 > 100 µM | UO-31 > 100 µM | HT-29 > 100 µM | SK-OV-3 > 100 µM | SK-MEL-2 > 100 µM | DU-145 > 100 µM | OVCAR-8 > 100 µM | OVCAR-5 > 100 µM | SNB-19 > 100 µM | SR > 100 µM | BT-549 > 100 µM | MCF7 > 100 µM | CAKI-1 > 100 µM | SF-539 > 100 µM | HCC 2998 > 100 µM
